Molecules are shown by their SMILES. Where a name gives a salt, the structure may show the parent alone. Read-outs that look alike come from different tables or passages of the source.

The text below walks through data of US6608086B2, “Dihydropyridines and new uses thereof” (Synaptic Pharmaceutical Corporation, priority 1993, dated 2003).

The target in assay [1] is T1, α1B Human Adrenergic Receptor (Homo sapiens, UniProt P35368).
T1 construct: The entire coding region of α1B (1563 bp); expressed in transfected cells
T1 sequence (P35368 1-520): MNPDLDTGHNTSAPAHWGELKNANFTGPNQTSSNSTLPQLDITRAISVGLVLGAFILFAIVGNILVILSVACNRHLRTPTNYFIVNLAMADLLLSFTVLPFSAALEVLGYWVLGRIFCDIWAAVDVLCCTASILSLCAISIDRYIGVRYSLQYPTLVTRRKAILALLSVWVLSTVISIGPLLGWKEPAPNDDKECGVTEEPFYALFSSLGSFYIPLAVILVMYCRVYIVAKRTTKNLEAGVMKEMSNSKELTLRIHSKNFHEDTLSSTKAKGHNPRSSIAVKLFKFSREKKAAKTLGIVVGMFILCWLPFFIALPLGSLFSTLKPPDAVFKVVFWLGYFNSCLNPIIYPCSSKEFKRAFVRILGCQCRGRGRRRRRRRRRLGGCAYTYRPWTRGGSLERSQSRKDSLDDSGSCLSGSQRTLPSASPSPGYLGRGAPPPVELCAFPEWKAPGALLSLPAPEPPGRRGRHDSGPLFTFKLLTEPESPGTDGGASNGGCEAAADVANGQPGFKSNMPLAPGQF
The experiment in a line: Radioligand binding, [3H]prazosin, cloned human α1B adrenergic receptor. Put shortly:
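Membranes from stably transfected LM(tk−) cells, resuspended in 50 mM Tris-HCl, 1 mM MgCl2, 0.1% ascorbic acid, pH 7.5, were incubated with 0.5 nM [3H]prazosin for 20 min at 37° C. Nonspecific binding defined with 10 μM phentolamine; bound ligand separated by GF/B filtration.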

The target in assay [2] is T2, α2A receptor (Homo sapiens, UniProt P08913).
T2 construct: host or cells: LM(tk-) cells, line L-α2A
T2 sequence (P08913 1-465): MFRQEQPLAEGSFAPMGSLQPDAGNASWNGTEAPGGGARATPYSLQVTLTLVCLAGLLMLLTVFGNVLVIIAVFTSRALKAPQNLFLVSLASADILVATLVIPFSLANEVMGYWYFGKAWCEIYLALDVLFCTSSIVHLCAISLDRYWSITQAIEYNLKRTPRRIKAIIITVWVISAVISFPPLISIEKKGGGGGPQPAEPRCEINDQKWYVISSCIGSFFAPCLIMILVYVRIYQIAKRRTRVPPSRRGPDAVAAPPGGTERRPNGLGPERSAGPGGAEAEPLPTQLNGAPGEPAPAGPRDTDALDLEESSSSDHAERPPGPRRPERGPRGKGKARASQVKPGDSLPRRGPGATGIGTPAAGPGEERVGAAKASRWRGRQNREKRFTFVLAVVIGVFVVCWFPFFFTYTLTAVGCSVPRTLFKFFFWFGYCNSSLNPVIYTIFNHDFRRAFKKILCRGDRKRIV
The experiment in a line: Competition binding, [3H]rauwolscine, human α2A receptor. A digest of the protocol:
(§1)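 Using 25 mM glycylglycine buffer at pH 7.6 (room temperature), membranes from LM(tk−) cells carrying α2A, α2B or α2C were competed against 0.5 nM [3H]rauwolscine to equilibrium. Separation was by GF/B filtration; phentolamine (10 μM) set nonspecific binding.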

Assay [3] concerns the target T3, α2B receptor (Homo sapiens, UniProt P18089).
T3 construct: host or cells: LM(tk-) cells, line L-NGC-α2B
T3 sequence (P18089 1-450): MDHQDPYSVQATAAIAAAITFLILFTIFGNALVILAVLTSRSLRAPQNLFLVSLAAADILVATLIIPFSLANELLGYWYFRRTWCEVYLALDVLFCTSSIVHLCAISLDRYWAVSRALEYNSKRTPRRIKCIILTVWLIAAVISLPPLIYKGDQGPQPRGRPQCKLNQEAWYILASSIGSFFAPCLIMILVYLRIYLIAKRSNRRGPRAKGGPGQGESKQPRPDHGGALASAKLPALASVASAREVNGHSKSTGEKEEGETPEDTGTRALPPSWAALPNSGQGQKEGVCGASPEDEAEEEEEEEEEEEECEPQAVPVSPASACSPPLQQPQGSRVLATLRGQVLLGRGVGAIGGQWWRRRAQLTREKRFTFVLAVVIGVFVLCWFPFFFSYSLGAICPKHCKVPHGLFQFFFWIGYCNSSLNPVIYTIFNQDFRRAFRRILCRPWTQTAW
The assay can be described thus: Competition binding, [3H]rauwolscine, human α2B receptor. Put shortly:
as §1

The target of assay [4] is T4, α2C receptor (Homo sapiens, UniProt P18825).
T4 construct: host or cells: LM(tk-) cells, line L-α2C
T4 sequence (P18825 1-462): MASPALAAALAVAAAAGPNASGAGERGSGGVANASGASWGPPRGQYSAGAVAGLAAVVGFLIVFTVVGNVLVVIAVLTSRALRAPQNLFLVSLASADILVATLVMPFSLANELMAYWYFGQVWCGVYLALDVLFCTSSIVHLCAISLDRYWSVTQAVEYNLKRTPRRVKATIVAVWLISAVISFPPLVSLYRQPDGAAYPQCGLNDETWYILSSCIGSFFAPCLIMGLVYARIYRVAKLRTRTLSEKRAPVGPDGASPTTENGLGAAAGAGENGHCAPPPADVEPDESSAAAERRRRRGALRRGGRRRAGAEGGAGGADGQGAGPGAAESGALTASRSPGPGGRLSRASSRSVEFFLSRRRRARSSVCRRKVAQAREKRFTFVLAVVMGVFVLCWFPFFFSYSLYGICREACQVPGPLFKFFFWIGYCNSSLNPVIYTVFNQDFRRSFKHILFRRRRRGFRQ
The experiment in a line: Competition binding, [3H]rauwolscine, human α2C receptor. A digest of the protocol: as §1

Setting [5] is: cloned human receptor in LM(tk-) cell membranes, SEM and n in lines below, read-out: pKi alpha-1 1b (converted).
Where [6] appears, read: [3H]rauwolscine, LM(tk-) cell line L-α2A, SEM and n in lines below, read-out: pKi alpha-2 2a (converted).
The mark [7] stands for this setting: [3H]rauwolscine, LM(tk-) cell line L-NGC-α2B, SEM and n in lines below, read-out: pKi alpha-2 2b (converted).
The mark [8] stands for this setting: [3H]rauwolscine, LM(tk-) cell line L-α2C, SEM and n in lines below, read-out: pKi alpha-2 2c (converted).
Setting [9] is: cloned human receptor, LM(tk-) cell membranes, mean, read-out: PKi alpha-1 1b (converted).
Where [10] appears, read: [3H]rauwolscine, human α2A receptor, LM(tk-) cells, read-out: PKi alpha-2 2a (converted).

`CC1=C(C(N)=O)C(c2ccc([N+](=O)[O-])cc2)C(C(=O)NCCCN2CCC(c3ccccc3)CC2)=C(C)N1` (stereo not drawn) [Example 60, 5-Carboxamido-1,4-dihydro-2,6-dimethyl-4-(4-nitrophenyl)-3-{N-[3-(4-phenylpiperidin-1-yl)propyl]}carboxamidopyridine]: the Ki in assay [1] (setting [5]) is 77.6 nM; in assay [2] (setting [6]), 5.5 nM; in assay [3] (setting [7]), 69.2 nM; in assay [4] (setting [8]) it was 67.6 nM.

On to `CCNC(=O)C1=C(CC)NC(COCCN)=C(C(=O)NCCCN2CCC(C(=O)OCC)(c3ccccc3)CC2)C1c1ccc([N+](=O)[O-])cc1` (stereo not drawn) [Example 192, 2-[(2-Aminoethoxy)methyl]-3-{N-[3-(4-ethoxycarbonyl-4-phenyl-piperidin-1-yl)propyl]}carboxamido-1,4-dihydro-6-ethyl-5-(N-ethyl)carboxamido-4-(4-nitrophenyl)pyridine], for which the Ki in assay [1] (setting [9]) was 1860 nM; in assay [2] ([3H]rauwolscine, human receptor, LM(tk-) cell lysates, mean, read-out: PKi alpha-2 2a (converted)) it was 3720 nM; in assay [3] ([3H]rauwolscine, human receptor, LM(tk-) cell lysates, mean, read-out: PKi alpha-2 2b (converted)), 6170 nM; in assay [4] ([3H]rauwolscine, human receptor, LM(tk-) cell lysates, mean, read-out: PKi alpha-2 2c (converted)), 1480 nM.

Regarding `CCOC(=O)C1(c2ccccc2)CCN(CCCNC(=O)C2=C(COCC(F)(F)F)NC(C)=C(C(N)=O)C2c2ccc([N+](=O)[O-])cc2)CC1` (stereo not drawn) [Example 243, 5-Carboxamido-3-(N-(3-(4-ethoxycarbonyl-4-phenylpiperidin-1yl)propyl))carboxamido-2-((2,2,2-trifluoroethyl)oxy)methyl-1,4dihydro-6-methyl-4-(4-nitro)phenylpyridine], the Ki was 759 nM in assay [1] (cloned human α1B receptor, LM(tk-) cell membranes, read-out: PKi alpha-1 1b (converted)); 2240 nM in assay [2] (setting [10]); 977 nM in assay [3] ([3H]rauwolscine, human α2B receptor, LM(tk-) cells, read-out: PKi alpha-2 2b (converted)); 1070 nM in assay [4] ([3H]rauwolscine, human α2C receptor, LM(tk-) cells, read-out: PKi alpha-2 2c (converted)).

For the compound `CCC1=C(C(=O)NC2CCN(Cc3ccccc3)CC2)C(c2ccc([N+](=O)[O-])cc2)C(C(=O)OC)=C(C)N1` (stereo not drawn) [Example 75, 2-Ethyl-1,4-dihydro-5-methoxycarbonyl-6-methyl-4-(4-nitro)phenyl-3-(N-(N-phenylmethyl)piperidin-4-yl)carboxamidopyridine hydrochloride], the Ki in assay [1] (setting [5]) is 3890 nM; in assay [2] (setting [6]), 2880 nM; in assay [3] (setting [7]), 3090 nM; in assay [4] (setting [8]), 1230 nM.

As for `COC(=O)C1=C(C)NC(c2ccccc2)=C(C(=O)NCCCN2CCC(c3ccccc3)CC2)C1c1ccc([N+](=O)[O-])cc1.Cl` (stereo not drawn) [Example 79, 1,4-Dihydro-5-methoxycarbonyl-6-methyl-4-(4-nitro)phenyl-2-phenyl-3-(N-(3-(4-phenylpiperidin-1-yl)propyl)) carboxamidopyridine hydrochloride], the “pKi alpha-1 1b” value in assay [1] (cloned human receptor in LM(tk-) cell membranes, SEM and n in lines below) is given as 7.33. In addition, the “pKi alpha-2 2a” value in assay [2] ([3H]rauwolscine, LM(tk-) cell line L-α2A, SEM and n in lines below) was found to be 6.84. Besides, the “pKi alpha-2 2b” value in assay [3] ([3H]rauwolscine, LM(tk-) cell line L-NGC-α2B, SEM and n in lines below) was determined as 7.28. For the same compound, in assay [4] ([3H]rauwolscine, LM(tk-) cell line L-α2C, SEM and n in lines below), the “pKi alpha-2 2c” value is reported as 7.21.

As to `COC(=O)C1=C(C)NC(C)=C(C(=O)NCCCN2CCC(c3ccccc3)(c3ccccc3)CC2)C1c1cccc([N+](=O)[O-])c1` (stereo not drawn) [Example 249, 1,4-Dihydro-3-methoxycarbonyl-2,6-dimethyl-4-(3-nitrophenyl)-5-(N-(3-(4,4-diphenylpiperidin-1-yl)propyl)carboxamido)-pyridine], the “PKi alpha-1 1b” value in assay [1] (cloned human α1B receptor, LM(tk-) cell membranes) was determined as 6.63. Also, in assay [2], the “PKi alpha-2 2a” value was 5.81. In addition, in assay [3], the “PKi alpha-2 2b” value was determined as 5.91. For the same compound, in assay [4], the “PKi alpha-2 2c” value was 6.25.

For `CC(=O)C1=C(C)NC(COCCN)=C(C(=O)NCCCN2CCC(c3ccccc3)(c3ccccc3)CC2)C1c1ccc2c(c1)OCO2` (stereo not drawn) [Example 239, 5-Acetyl-2-((2-aminoethyl)oxy)methyl-1,4-dihydro-6-methyl-4-(3,4-methylenedioxy)phenyl-3-(N-(3-(4,4-dipheylpiperidin-1-yl)propyl))carboxamidopyridine], the Ki in assay [1] (PKi alpha-1 1b, cloned human α1B receptor, LM(tk-) cell membranes) was 257 nM; in assay [2] (setting [10]), 832 nM; in assay [3] (PKi alpha-2 2b, [3H]rauwolscine, human α2B receptor, LM(tk-) cells), 759 nM; in assay [4] (PKi alpha-2 2c, [3H]rauwolscine, human α2C receptor, LM(tk-) cells) it was 263 nM.

As for `COC(=O)C1(c2ccccc2)CCN(CCCNC(=O)C2=C(CCCCN)NC(C)=C(C(N)=O)C2c2ccc([N+](=O)[O-])cc2)CC1` (stereo not drawn) [Example 177, 2-(4-Aminobutyl)-5-carboxamido-1,4-dihydro-3-{N-[3-(4-methoxycarbonyl-4-phenylpiperidin-1-yl)propyl]}carboxamido-6-methyl-4-(4-nitrophenyl)pyridine], the Ki in assay [1] (setting [9]) is 759 nM; in assay [2], 1660 nM; in assay [3] (PKi alpha-2 2b), 2880 nM; in assay [4] (PKi alpha-2 2c), 832 nM.

As for `COC(=O)C1=C(C)NC(C)=C(C(=O)NCCCCN2CCC(c3ccccc3)CC2)C1c1ccc([N+](=O)[O-])cc1` (stereo not drawn) [Example 3, 1,4-Dihydro-3-methoxycarbonyl-2,6-dimethyl-4-(4-nitrophenyl)-5-{N-[4-(4-phenylpiperidin-1-yl)butyl]}carbozamidopyridine hydrochloride hydrate], the Ki in assay [1] (setting [5]) was 64.6 nM; in assay [2] (setting [6]) it was 102 nM; in assay [3] (setting [7]) it was 22.4 nM; in assay [4] (setting [8]), 51.3 nM.
